According to US7638486B2, “Method for promoting hard tissue formation” (Acologix, Inc., priority 2005, dated 2009):

Legend:
human mesenchymal cells = assay: PGE2 in human mesenchymal cells in culture; format: cell-based; conditions: peptide alone
COX-2 mRNA [1] = assay: Gene expression microarray analysis in Clonetics hMSC cells; format: cell-based, human; conditions: peptide 1000 ng/ml
Description: Materials and Methods: The effect of the peptide of SEQ ID No. 8 treatment on gene expression was assessed in the Clonetics hMSC cells using gene expression microarray analysis as previously described (Locklin et al., 2001). Briefly, cells were plated in five T-150 vented flasks at a density of 1.0×10^6 cells per flask in growth medium and cultured at 37° C. for 48 hours. Flasks containing either vehicle alone or the peptide of SEQ ID No. 8 (1000 ng/ml) were cultured for 24 hr or for 48 h in standard differentiation medium. At each time point, the vehicle and treatment flasks were trypsinized, cells removed and total RNA was extracted for analysis via the Qiagen Rneasy Kit (Qiagen). 8 μg of total RNA were amplified and biotin labeled. The mixture was hybridized to a U95A human gene expression microarray (Affymetrix) containing probes for 12,600 human genes. The chips were then washed, stained with phycoerythrin-streptavidin and read with an Affymetrix scanner. Hybridization intensity values to mRNA frequency were calculated in molecules per million. Analysis of intensity values was conducted using Spotfire Decision Site (Somerville, Mass.) software.

dorsal muscle of mice = assay: Ectopic bone formation in mouse dorsal muscle with implanted polymer; format: in vivo, ICR mice
Text: It has been known that BMP causes bone formation when administered or implanted in mammals when given. The activity can be enhanced when given in the appropriate delivery vehicle.
The mice were sacrificed 3 weeks later and the newly formed bones were isolated for evaluation using soft X-ray radiograph and bone mineral density determination.

COX-2 mRNA [2] = conditions: Nagel et al., Journal of Cellular Biochemistry, 2004; cited from earlier work
[3] = system: MC3T3-E1 subclone 4 cells; assay: BMP-2 stimulated PGE2 production by MC3T3 cells (ELISA); format: cell-based, mouse; conditions: 24 hours, with BMP-2
Description: Methods: MC3T3-E1 subclone 4 cells are neonatal mouse derived calvarial preosteoblasts with fibroblast morphology. […] For this experiment the MC3T3 cells were plated 10^5 cells per well in 24 well plates in growth medium (alpha MEM+1 mM sodium pyruvate+10% fetal bovine serum (FBS)). After 24 hours of culture the media was removed and replaced with assay media (alphaMEM+1 mM sodium pyruvate+2% FBS) containing the test substances. Each test group utilized 4 wells. After incubation for a further 24 hours the media was removed and the levels of PGE2 were determined using an ELISA (R&D Systems).

hemi-calvariae [4] = assay: Mouse calvaria organ culture assay (PGE2 ELISA, histology); format: cell-based, Swiss Webster mice; conditions: peptide 1, 10, 100 μg/mL daily for seven days
Text: Methods: Calvarial organ cultures have been used for many years to study the regulation of bone formation and bone resorption. An advantage of this method compared to in vivo studies is the absence of confounding effects (such as hormonal and mechanical influences) meaning a more direct effect of the test substances on bone tissue can be determined. Also compared to isolated cell systems, interrelationships between the different cell types in the bone and between these cells and the bone matrix are preserved.
Briefly, hemi-calvariae were isolated from 4 day old Swiss Webster mice and incubated in media on steel mesh grids. The peptide of SEQ ID NO. […] Samples of the conditioned media were collected daily for analysis of PGE2 concentration (R&D Systems ELISA kit). At the end of the culture the bones were analyzed for new bone formation and number of osteoblasts using histology.

[5] = system: primary osteoblasts collected from fetal mouse calvaria; assay: Alkaline phosphatase (ALP) activity in primary osteoblasts under suboptimal BMP-2; format: cell-based
Description: The peptide of SEQ ID No. 8 was added to this culture system at 0, 0.2, 0.4, 1.0, 2.0, and 4.0 μM. The levels of ALP were evaluated on days 0, 3, and 7.

[6] = system: hard tissue forming cells; assay: Biological activities for the purpose of the invention (test not specified)
hemi-calvariae [7] = conditions: Middleton-Hardie et al., ASBMR 2005; cited from earlier work

TDLQERGDNDISPFSGDGQPFKD [SEQ ID No. 8]
PGE2 increase (human mesenchymal cells): did not result in a significant increase
COX-2 mRNA increase (summary in discussion) (COX-2 mRNA [1]): ~3 fold
COX-2 mRNA increase (COX-2 mRNA [1]; 24 h): 3.6 fold
COX-2 mRNA increase (COX-2 mRNA [1]; 48 h): 2.2 fold
Effect of the peptide on BMP-2 bone formation (size and mineral density of ectopic ossicles) (dorsal muscle of mice; 3 μg BMP-2 in 30 mg polymer, peptide 50, 250 or 1250 μg, three weeks): significant enhancement
Bone formation when peptide added to suboptimal dose of rhBMP-2 (dorsal muscle of mice; 3 μg rhBMP-2, varying amounts of peptide): significant and dose dependent increase
Efficacy of the peptide on bone formation (size and mineral density of ectopic ossicles) (dorsal muscle of mice; 5 μg BMP-2 in 30 mg polymer, peptide 50, 250 or 1250 μg, three weeks): unclear
COX-2 in human mesenchymal stem cells (COX-2 mRNA [2]): upregulated
BMP-2 induced PGE2 production [3]: increases
PGE2 production (hemi-calvariae [4]): significant increases
bone cell density (hemi-calvariae [4]; histology): significant increases
osteoblast surface (hemi-calvariae [4]; histology): significant increases
parameters of new bone formation (hemi-calvariae [4]; histology): significant increases
ALP activity increase as compared with BMP-2 treated cells without the peptide ([5]; 2 μM peptide with 25 ng/mL BMP-2): ~2 times
ALP activity in osteoblastic cells ([5]; BMP-2 25 ng/mL plus peptide 0.2-4.0 μM, dose dependent): significantly increased
Biological activities relative to other sequences [6]: highest activities
production of PGE2 in mouse calvaria organ culture assay (hemi-calvariae [7]): dose dependently upregulated
